± gives the standard deviation of the averaged measurements.
What was measured:
17-AAG = compound: C=CCNC1=C2C[C@@H](C)C[C@H](OC)[C@H](O)[C@@H](C)/C=C(\C)[C@H](OC(N)=O)[C@@H](OC)/C=C\C=C(/C)C(=O)NC(=CC1=O)C2=O [17-AAG]; assay: surviving fraction relative to DMSO-only wells; higher = less growth inhibition; conditions: exposure time: 5 days
Method in brief: (§1)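 Tumour cell lines in log phase were plated in 384-well plates at 250–500 cells per well, then, after 24 hours, exposed continuously for five days to inhibitors at 0.5, 1, 5, 10, 50, 100, 500 and 1000 nM. Viability came from CellTiter-Glo luminescence, and surviving fraction is that signal normalised to the median of DMSO-only wells. Plates were read after 10 minutes at room temperature, and each line, screened three times, was kept only when replicate Pearson r was >0.7 and median Z' was >0.3.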

SALINOMYCIN = compound: CC[C@@H](C(=O)[C@@H](C)[C@@H](O)[C@H](C)[C@@H]1O[C@@H]([C@@H](CC)C(=O)O)CC[C@@H]1C)[C@H]1O[C@]2(C=C[C@@H](O)[C@]3(CC[C@@](C)([C@H]4CC[C@](O)(CC)[C@H](C)O4)O3)O2)[C@H](C)C[C@@H]1C [SALINOMYCIN]; assay: as above; conditions: exposure time: 5 days
Method in brief: as §1

| Test System | surviving fraction (17-AAG; 0.5 nM) | surviving fraction (17-AAG; 1 nM) | surviving fraction (17-AAG; 5 nM) | surviving fraction (17-AAG; 10 nM) | surviving fraction (17-AAG; 50 nM) | surviving fraction (17-AAG; 100 nM) | surviving fraction (17-AAG; 500 nM) | surviving fraction (17-AAG; 1000 nM) | surviving fraction (SALINOMYCIN; 0.5 nM) | surviving fraction (SALINOMYCIN; 1 nM) | surviving fraction (SALINOMYCIN; 5 nM) | surviving fraction (SALINOMYCIN; 10 nM) | surviving fraction (SALINOMYCIN; 50 nM) | surviving fraction (SALINOMYCIN; 100 nM) | surviving fraction (SALINOMYCIN; 500 nM) | surviving fraction (SALINOMYCIN; 1000 nM) |
| --- | --- | --- | --- | --- | --- | --- | --- | --- | --- | --- | --- | --- | --- | --- | --- | --- |
| SG43 HEADNECK | 1.1 ± 0.2 | 1.1 ± 0.22 | 1.05 ± 0.043 | 0.801 ± 0.25 | 0.302 ± 0.069 | 0.074 ± 0.034 | 0.03 ± 0.004 | 0.028 ± 0.0062 | 0.921 ± 0.12 | 1.2 ± 0.14 | 0.776 ± 0.14 | 1.05 ± 0.13 | 0.954 ± 0.14 | 1.16 ± 0.13 | 0.459 ± 0.023 | 0.285 ± 0.11 |
| SIHA CERVIX | 1.01 ± 0.073 | 0.939 ± 0.033 | 0.969 ± 0.18 | 0.895 ± 0.032 | 0.581 ± 0.077 | 0.211 ± 0.012 | 0.171 ± 0.0082 | 0.18 ± 0.017 | 0.875 ± 0.013 | 0.878 ± 0.011 | 0.935 ± 0.073 | 0.967 ± 0.047 | 0.9557 ± 0.0072 | 0.928 ± 0.052 | 0.513 ± 0.038 | 0.419 ± 0.014 |
| SJSA1 BONE | 0.84 ± 0.049 | 0.865 ± 0.064 | 0.872 ± 0.023 | 0.846 ± 0.029 | 0.217 ± 0.02 | 0.106 ± 0.0032 | 0.0517 ± 0.0055 | 0.0433 ± 0.0011 | 1 ± 0.033 | 0.992 ± 0.011 | 1.02 ± 0.041 | 1 ± 0.033 | 1.02 ± 0.023 | 0.966 ± 0.023 | 0.404 ± 0.041 | 0.27 ± 0.043 |
| SKBR3 BREAST | 0.752 ± 0.21 | 0.76 ± 0.055 | 0.497 ± 0.033 | 0.365 ± 0.026 | 0.25 ± 0.018 | 0.205 ± 0.013 | 0.177 ± 0.019 | 0.173 ± 0.0038 | 1 ± 0.13 | 1.09 ± 0.2 | 0.927 ± 0.12 | 0.997 ± 0.051 | 1.05 ± 0.12 | 0.98 ± 0.17 | 0.238 ± 0.025 | 0.109 ± 0.015 |
| SNU475 LIVER | 0.864 ± 0.017 | 0.884 ± 0.013 | 0.792 ± 0.036 | 0.418 ± 0.062 | 0.259 ± 0.02 | 0.234 ± 0.0059 | 0.248 ± 0.013 | 0.23 ± 0.029 | 0.974 ± 0.027 | 0.86 ± 0.032 | 0.952 ± 0.029 | 0.423 ± 0.0047 | 1.04 ± 0.036 | 0.871 ± 0.033 | 0.46 ± 0.046 | 0.31 ± 0.018 |
| SUM44 BREAST | 0.897 ± 0.02 | 0.863 ± 0.051 | 0.759 ± 0.026 | 0.522 ± 0.026 | 0.539 ± 0.021 | 0.494 ± 0.014 | 0.456 ± 0.017 | 0.464 ± 0.012 | 0.967 ± 0.033 | 0.959 ± 0.021 | 0.995 ± 0.042 | 0.992 ± 0.017 | 1.01 ± 0.033 | 1.02 ± 0.028 | 0.852 ± 0.031 | 0.748 ± 0.037 |
| SUM149 BREAST | 0.924 ± 0.031 | 0.964 ± 0.026 | 0.87 ± 0.053 | 0.35 ± 0.018 | 0.0457 ± 0.0049 | 0.034 ± 0.004 | 0.0233 ± 0.0023 | 0.0237 ± 0.00058 | 0.981 ± 0.06 | 0.972 ± 0.14 | 1.02 ± 0.13 | 0.392 ± 0.03 | 1.06 ± 0.092 | 0.836 ± 0.052 | 0.424 ± 0.042 | 0.356 ± 0.01 |
| SUM149.B1*.S BREAST | 0.9335 ± 0.0026 | 0.893 ± 0.032 | 0.905 ± 0.038 | 0.83 ± 0.017 | 0.201 ± 0.021 | 0.131 ± 0.018 | 0.083 ± 0.019 | 0.0832 ± 0.014 | 1.02 ± 0.052 | 0.884 ± 0.057 | 0.955 ± 0.016 | 0.609 ± 0.014 | 0.982 ± 0.051 | 0.768 ± 0.032 | 0.3677 ± 0.0023 | 0.294 ± 0.016 |
